According to patent US20230129034A1, “TREATMENT OF DISEASE WITH ESTERS OF SELECTIVE RXR AGONISTS” (Io Therapeutics, Inc., priority 2017, published 2023):
“Also recorded” adds a separate entry of the source.

Tests used:
[1] = Plasma and brain concentrations after intravenous injection in ICR mice (LC-MS/MS); format: in vivo; conditions: 1 mg/kg IV
Description: The compounds were dissolved in 4% DMSO, 1% Tween80 and 95% PBS(v/v) at a concentration of 0.2 mg/ml. Each mouse was injected with a volume to deliver 1 mg/kg of the compound (corresponding to 3 mg/m^2).
At designated time points (0.5, 1.5, and 3 hr), with the mice under terminal isofluorane anesthesia, systemic blood sample (ca 0.4-0.5 mL) were collected by cardiac puncture into micro-tube containing sodium EDTA-K2 as anti-coagulant (n=3 at each time point). Blood samples from the IRX4204EE arm of the study had appropriate esterase inhibitors added. The blood was centrifuged at 13000 rpm for 3 min at 4° C. to obtain plasma and protein was precipitated with acetonitrile prior to being assayed for compound content. The brain was removed and transferred to a pre-weighed vessel for weight determination. Brain tissue was homogenized in five volumes of PBS, centrifuged, and the supernatant assayed for compound content. […] The same standard curve was used to quantitate analyte concentrations in both brain and plasma.

[2] = system: demyelination in C57BL/6J mice; experiment: Cuprizone/rapamycin (CR) chronic 12-week mouse model of toxic demyelination; format: in vivo; conditions: 12 weeks CR; for # of Myelinated Axons per CC unit (PPD staining, corpus callosum) / % Area of Myelin Cortex (PLP staining) / % Area of Myelin Hippocampus (PLP staining): then 10 mg/kg/d PO daily for 6 weeks, with or without 20 ng/g thyroxine SC
Description: Mice are fed a cuprizone-containing diet and injected with rapamycin daily (CR regimen) for 12 weeks to induce demyelination. One group of animals is sacrificed at 12 weeks to evaluate demyelination. […] At the end of the study, all mice are sacrificed and one or more of the following parameters are determined: (1) PPD (p-phenylenediamine) staining to visualize and quantify myelinated axons in corpus callosum to assess demyelination and remyelination in white matter; (2) myelin proteolipid protein (PLP) immunostaining to visualize and quantify myelin in hippocampus to assess demyelination and remyelination in grey matter (hippocampus); (3) PLP immunostaining to visualize and quantify myelin in cortex to assess demyelination and remyelination in grey matter (cortex); (4) PDGFRα immunostaining to visualize and quantify OPCs in corpus callosum; (5) GSTpi immunostaining to visualize and quantify oligodendrocytes in corpus callosum; (6) Iba1 (ionized calcium-binding adapter molecule 1) and/or Mac-2 (galectin-3) immunostaining to visualize and quantify total and activated microglia in corpus callosum; (7) GFAP (glial fibrillary acidic protein) immunostaining to visualize and quantify astrocytes in corpus callosum To assess astroglial activation; and (8) 3D-electron microscopy in corpus callosum to assess ratio of myelinated and non-myelinated axons, internodal length, G-ratio, mitochondrial changes, etc.
The animals (8 week-old male C57BL/6J mice) are subjected to cuprizone diet plus rapamycin injections (CR) for 12 weeks to induce demyelination in white matter (CC, corpus callosum). After 12 weeks, CR is discontinued and subsets of animals are treated daily for 6 weeks with one of the following treatment regimens:
All animals are sacrificed after 12 weeks of CR (Group 7) or after further 6 weeks of treatment (Groups 1-6) to evaluate myelin in white matter (corpus callosum) and gray matter (hippocampus and cortex). In addition, the size of myelinated axons are quantified and the large myelinated axons are further assessed by 3D-electron microscopy (3D-EM).
A total of 92 mice are included in the study. Eight week-old male C57BL/6J mice are placed on a rodent chow (Harlan) containing 0.3% cuprizone for 12 weeks. These mice are also injected with rapamycin (approximately 10 mg/kg body weight at the volume of 0.1 ml, IP) daily for 12 weeks. Eight mice are maintained on a normal diet. The weight of the animals is monitored on a weekly-basis.
The drug is reconstituted in vehicle (DMSO/PBS/Tween) and fresh drug is made up once a week and administered orally once daily. […] Similarly, subgroups (n=12) of CR treated mice are treated with oral IRX4204EE and subcutaneous thyroxine vehicle (Group 5) or oral IRX4204EE and subcutaneous thyroxine (Group 6) at the indicated doses.
Epon-PPD stained sections of corpus callosum are evaluated in bright field at 10X, 20X and 63X (oil objective). A total of 4 images (63X) per animal are collected in the region of interest (ROI), which is a specific region between the rostral corpus callosum and the junction of the fornix. The images outside the ROI are not scored. The images are then evaluated using NIH ImageJ (aka. Fiji) to identify and count myelinated axons in the region of interest. The numbers of PPD-stained myelinated axons in all of the counting boxes for each image are counted. Using the polygon selection tool, the margins of the corpus callosum in each slice are identified and ImageJ is then used to calculate the total area of the CC in that slice. The total number of myelinated axons in a specific area of the corpus callosum is then calculated by dividing the total area of the CC by the total area of the counting boxes and multiplying by the combined number of myelinated axons that are counted in all of the counting boxes for each image. […]

LXRβ/RXR = experiment: Permissive heterodimer transactivation assay, CV-1 cells, 3x(PLTP/LXRE)-tk-Luc; format: cell-based; conditions: 20 hr, luciferase vs T0901317
Source text: (§1) For PPARy: CV-1 cells were transfected with 3x(rAOX/DR1)-tk-Luc reporter gene and an expression vector for PPARy. For FXR:CV-1 cells were transfected with 3x(IBABP/IRI)-tk-Luc reporter gene and vectors for FXR and RXRα. For LXR:CV-1 cells were transfected with 3x(PLTP/LXRE)-tk-Luc reporter gene with vectors for LXRα or LXRβ. For Nurr1: COS7 cells were transfected with 3xNBRE-tk-luc reporter gene and full length Nurr-1 with or without full-length RXRα plasmid. […] Luciferase data were normalized to co-transfected β-gal activity. Luciferase activity was expressed as percent of maximal activity obtained using specific agonists. Rosiglitazone (PPARy), GW4064 (FXR), T0901317 (LXR).

LXRα/RXR = experiment: as above; format: cell-based; conditions: 20 hr, luciferase vs T0901317
Source text: as §1

[3] = system: oligodendrocyte precursor cells (OPCs); experiment: Oligodendrocyte precursor cell differentiation (PLP-EGFP OPCs); format: cell-based, mouse; conditions: for OPC differentiation into oligodendrocytes (EGFP positive cells): compared to negative control (DMSO)
Source text: OPCs were generated from a neurosphere culture of E14.5 PLP-EGFP (on C57BL/6J background) mouse brains. […] The EGFP expressing cells were quantified with Cellomics Neuronal Profiling Algorithm.
The EGFP expressing cells in controls and all compounds were quantified with Cellomics Neuronal Profiling Algorithm.

SMILES	concentration at 3 h ([1]; male, ICR, mouse, brain, 3 hours post-administration) [nM]	# of Myelinated Axons per CC unit (PPD staining, corpus callosum) [2]	% Area of Myelin Cortex (PLP staining) [2] [%]	% Area of Myelin Hippocampus (PLP staining) [2] [%]	average diameter of myelinated axons ([2]; then 6 weeks treatment)	increase in myelin volume compared to vehicles control ([2]; then 6 weeks treatment)	activation of LXRβ/RXR heterodimer (LXRβ/RXR)	activation of LXRα/RXR heterodimer (LXRα/RXR)	OPC differentiation into oligodendrocytes by concentration ([3]; all tested concentrations but the lowest concentration (1^-6 µM))	total cell number and pyknotic cells ([3]; compared to controls)	OPC differentiation into oligodendrocytes (EGFP positive cells) [3]	concentration of the ester in the brain over the course of the experiment ([1]; 0.5 to 3 hr)	concentration of the ester in blood compared with brain ([1]; 3 hour time point)	blood concentration of the ester itself relative to IRX4204 ([1]; 3 hours)	concentration of IRX4204 in the blood from the ester form compared with the free acid form ([1]; 3 hours)	blood concentration of IRX4204 due to conversion of IRX4204EE relative to that due to IV injection of IRX4204 ([1]; half-hour time point)	remyelination and neuroprotection activity relative to IRX4204 groups ([2]; then 6 weeks treatment)
CC(/C=C/[C@@H]1C[C@]1(C)c1ccc2c(c1)C(C)(C)CCC2(C)C)=C\C(=O)O [IRX4204, 3,7-dimethyl-6(S),7(S)-methano,7-[1,1,4,4-tetramethyl-1,2,3,4-tetrahydronaphth-7-yl]2(E),4(E) heptadienoic acid]	7.9 to 8.2	1570	48	38	approximately 0.9 µm	approximately 15%	not to transactivate; also recorded: does not activate	not to transactivate; also recorded: does not activate	significant increase in OPC differentiation	did not show any differences	promotes OPC differentiation	–	–	–	–	–	–
CCOC(=O)/C=C(C)/C=C/[C@@H]1C[C@]1(C)c1ccc2c(c1)C(C)(C)CCC2(C)C [IRX4204EE, 3,7-dimethyl-6(S),7(S)-methano,7-[1,1,4,4-tetramethyl-1,2,3,4-tetrahydronaphth-7-yl]2(E),4(E) heptadienoic ethyl ester]	–	4300	85	68	–	approximately 25%	very little activity	very little activity	–	–	essentially no activity; also recorded: considerably less active	rose slightly	approximately the same	about 5 fold	about the same	about one sixth	greater remyelination and neuroprotection activity than the corresponding IRX4204 treated groups
